Test system: SMA mice (Smn-/-; SMN2 2TG/0)
Assay: Growth curves (body weight gain) of severe SMA mice
Type: in vivo, mouse
Conditions: ASO1 at P0 and P1 and/or VPA 10 µg/g s.c.
Procedure: Kaplan-Meier survival plot (FIG. 4A) and growth curves (FIG. 4B) of SMA mice, following subcutaneous administration at P0 and P1 of 16.8 µg ASO1 (n=18) or saline (n=14), one subcutaneous dose before P3 of 10 µg per g of body weight VPA (n=12), or both treatments together (n=20). ASO1-treated Smn^+/- heterozygote littermates (n=15) served as controls. Scramble (Ctrl) (n=12, 40 trials), VPA (n=13, 50 trials), ASO1 (n=11, 50 trials), ASO1 + VPA (n=17, 68 trials), and untreated heterozygotes (n=12, 36 trials). Statistical significance was analyzed by two-way repeated measures ANOVA. P < 0.05 was considered statistically significant; data are represented as mean + SD. In the righting-reflex test, the time it took a mouse to right itself […] on a flat surface was measured. In the grip-strength test, the angle at which the pups fell from a tablet with a rough to which they held on by their forelimbs was measured.
FIGS. 7A-H show ASO1 and TSA combined treatment in mice. Kaplan-Meier survival plot (FIG. 7A) and growth curves (FIG. 7B) of SMA mice after subcutaneous administration at P0 and P1 of 16.8 µg ASO1 (n=20) or vehicle (n=12), one subcutaneous dose of 10 µg per g of body weight TSA (n=15) at P2, or both treatments together (n=24), are shown. ASO1-treated heterozygotes (n=18) served as controls. Statistical significance was analyzed by two-way repeated measures ANOVA. […]

## CCCC(CCC)C(=O)O [VPA, valproic acid]
  body weight gain in the surviving mice: lack of an effect per se
